According to US8507692B2, “Ester compound and use thereof” (Sumitomo Chemical Company, Limited, priority 2010, dated 2013):

Key:
Assay type in all cases: in vivo
[1] = test system: German cockroaches (Blattella germanica); experiment: Test Example 2: oil solution spray knock-down test on German cockroaches; details: 0.00625% (w/v) oil solution, 1.5 ml sprayed, adult German cockroaches
Protocol: Zero point zero six two five (0.00625) part of the compound of the present inventions (1) to (6) and (9) to (12) was dissolved in 10 parts of isopropyl alcohol and the solution was mixed with 89.99375 parts of deodorized kerosene to prepare a 0.00625% (w/v) oil solution.
Ten adult German cockroaches (Blattella germanica, 5 males and 5 females) were released in a test container (diameter 8.75 cm, 7.5 cm high, the bottom face is made of 16 mesh metallic wire), the inner face on which butter was applied, and the container was set at the bottom of a test chamber (bottom face: 46 cm×46 cm, height: 70 cm).
Each 1.5 ml of the oil solution of the compound of the present invention (1) to (6) and (9) to (12) was sprayed using a spray gun at a pressure of 0.4 kg/cm^2 from 60 cm higher than the upper face of the container. Thirty seconds after the spraying, the container was pulled out from the chamber. After a prescribed time, the number of knocked-down cockroaches was counted and a knock-down ratio was determined (repeated once). A knocked-down ratio was calculated by the following equation. Knocked-down ratio(%)=(Number of knocked-down cockroaches/Number of test cockroaches)×100 The results (2 minutes after spraying) are shown in Table 2.

[2] = test system: American cockroaches (Periplaneta Americana); experiment: Test Example 8: oil solution spray knock-down test on American cockroaches, 3 minutes; details: 0.1% (w/v) oil solution, 1.5 ml sprayed, adult American cockroaches
Protocol: Zero point one (0.1) part of the compound of the present inventions (1) to (6) and (9) to (12) was dissolved in 10 parts of isopropyl alcohol and the solution was mixed with 89.9 parts of deodorized kerosene to prepare a 0.1% (w/v) oil solution.
(§1) Six adult American cockroaches (Periplaneta Americana, 3 males and 3 females) were released in a test container (diameter 12.5 cm, 10 cm high, the bottom face is made of 16 mesh metallic wire), the inner face on which butter was applied, and the container was set at the bottom of a test chamber (bottom face: 46 cm×46 cm, height: 70 cm). Each 1.5 ml of the oil solution of the compound of the present invention (1) to (6) and (9) to (12) was sprayed using a spray gun at a pressure of 0.4 kg/cm^2 from 60 cm higher than the upper face of the container. Thirty seconds after the spraying, the container was pulled out from the chamber. Three minutes after spraying, the number of knocked-down cockroaches was counted and a knock-down ratio was determined (repeated twice). The knocked-down ratio was calculated by the following equation. Knocked-down ratio(%)=(Number of knocked-down cockroaches/Number of test cockroaches)×100

[3] = test system: common mosquitoes (Culex pipens pallens); experiment: Test Example 3: oil solution spray knock-down test on common mosquitoes in glass chamber; details: 0.025% (w/v) oil solution sprayed into 70 cm cubic glass chamber; adult female common mosquitoes; three minutes after spraying
Protocol: (§2) Zero point zero two five (0.025) part of the compound of the present invention (1) and (13) was dissolved in 10 parts of isopropyl alcohol, and the solution was mixed with 89.975 parts of deodorized kerosene to prepare a 0.025% (w/v) oil solution.
(§3) Ten adult female common mosquitoes (Culex pipens pallens) were released in a cubic glass chamber having each side of 70 cm. The oil solution of the compound of the present invention (1) and (13) was sprayed into the chamber through a small window on the side of the chamber using a spraying gun at a pressure of 0.9 kg/cm^2. Three minutes after spraying, the number of knocked-down mosquitoes was counted and a knock-down ratio was determined. A knocked-down ratio was calculated by the following equation. Knocked-down ratio(%)=(Number of knocked-down mosquitoes/Number of test mosquitoes)×100

[4] = test system: houseflies (Musca domestica); experiment: Test Example 4: oil solution spray knock-down test on houseflies in glass chamber; details: 0.025% (w/v) oil solution, 0.7 ml sprayed into 70 cm cubic glass chamber; adult houseflies; five minutes after spraying
Protocol: as §2
as §3, with “houseflies (Musca domestica)” for “female common mosquitoes (Culex pipens pallens)”, “cm, and 0.7 ml of the” for “cm. The”, “Five” for “Three”, “flies” for “mosquitoes”, “flies/Number” for “mosquitoes/Number”, “flies)×100” for “mosquitoes)×100”

[5] = test system: American cockroaches (Periplaneta Americana); experiment: Test Example 1: oil solution spray knock-down test on American cockroaches; details: 0.1% (w/v) oil solution, 1.5 ml sprayed, adult American cockroaches
Protocol: Zero point one (0.1) part of the compound of the present inventions (1) to (6) was dissolved in 10 parts of isopropyl alcohol and the solution was mixed with 89.9 parts of deodorized kerosene to prepare a 0.1% (w/v) oil solution.
as §1, with “(6)” for “(6) and (9) to (12)”, “After a prescribed time,” for “Three minutes after spraying,”
For comparison, the test was conducted in the same manner as the above, except for using 2,5-dioxo-3-(2-propynyl)imidazolidinylmethyl=(1R)-trans-3-(2-methyl-1-propenyl)-2,2-dimethylcyclopropane carboxylate (compound described in Pesticide Science, 10, p. 291 (1979), hereinafter referred to as the comparative compound (1)) represented by the following formula:
[drawing 41] and 2,5-dioxo-3-(2-propynyl)imidazolidinylmethyl=(1R)-cis-3-((Z)-2-cyano-2-methoxyethenyl)-2,2-dimethylcyclopropane carboxylate (compound described in JP-A-60-16962, hereinafter referred to as the comparative compound (2)) represented by the following formula: […]

[6] = test system: American cockroaches (Periplaneta fuliginosa); experiment: Test Example 7: oil solution spray knock-down test on cockroaches (Periplaneta fuliginosa); details: 0.1% (w/v) oil solution, 1.5 ml sprayed; adult cockroaches (Periplaneta fuliginosa); one minute after spraying
Protocol: Zero point one (0.1) part of the compound of the present invention (4) was dissolved in 10 parts of isopropyl alcohol and the solution was mixed with 89.9 parts of deodorized kerosene to prepare a 0.1% (w/v) oil solution.
as §1, with “fuliginosa,” for “Americana,”, “One point five (1.5)” for “Each 1.5”, “(4)” for “(1) to (6) and (9) to (12)”, “One” for “Three”, “cockroaches)×100 The knocked-down ratio of the compound of the present invention (4) was 100%.” for “cockroaches)×100”

Row | Structure (SMILES) | Knock-down ratio (%) 2 minutes after spraying [1] [%] | Knock-down ratio (%) 3 minutes after spraying [2] [%] | Knocked-down ratio [3] [%] | Knocked-down ratio [4] [%] | Knock-down ratio (%) 2 minutes after spraying [5] [%] | Knocked-down ratio [6] [%]
1 | C#CCN1CC(=O)N(COC(=O)[C@@H]2[C@@H](C=C(C#N)SC)C2(C)C)C1=O (relative stereo) [compound of the present invention (10), 2,5-dioxo-3-(2-propynyl)imidazolidinylmethyl=(1R)-trans-3-[(1EZ)-2-cyano-2-(methylthio)ethenyl]-2,2-dimethylcyclopropane carboxylate] | 100 | 100 |  |  |  | 
2 | C#CCN1CC(=O)N(COC(=O)[C@@H]2[C@@H](/C=C(\C#N)SCC)C2(C)C)C1=O [compound of the present invention (13), 2,5-dioxo-3-(2-propynyl)imidazolidinylmethyl=(1R)-trans-3-[(1E)-2-cyano-2-(ethylthio)ethenyl]-2,2-dimethylcyclopropane carboxylate] | 100 | 100 | 100 | 100 |  | 
3 | C#CCN1CC(=O)N(COC(=O)[C@@H]2[C@@H](C=C(C#N)SCCCC)C2(C)C)C1=O [compound of the present invention (5), 2,5-dioxo-3-(2-propynyl)imidazolidinylmethyl=(1R)-trans-3-[(1EZ)-2-cyano-2-(butylthio)ethenyl]-2,2-dimethylcyclopropane carboxylate] | 100 | 100 |  |  | 83 | 
4 | C#CCN1CC(=O)N(COC(=O)[C@@H]2[C@H](/C=C(/C#N)OC)C2(C)C)C1=O [comparative compound (2), 2,5-dioxo-3-(2-propynyl)imidazolidinylmethyl=(1R)-cis-3-((Z)-2-cyano-2-methoxyethenyl)-2,2-dimethylcyclopropane carboxylate, reference compound] |  |  |  |  | 42 | 
5 | C#CCN1CC(=O)N(COC(=O)[C@@H]2[C@@H](C=C(C#N)SCC)C2(C)C)C1=O (relative stereo) [compound of the present invention (9), 2,5-dioxo-3-(2-propynyl) imidazolidinylmethyl=(1R)-trans-3-[(1EZ)-2-cyano-2-(ethylthio)ethenyl]-2,2-dimethylcyclopropane carboxylate] | 100 | 100 |  |  |  | 
6 | C#CCN1CC(=O)N(COC(=O)[C@@H]2[C@@H](C=C(C#N)SC)C2(C)C)C1=O (relative stereo) [compound of the present invention (1), 2,5-dioxo-3-(2-propynyl)imidazolidinylmethyl=(1R)-trans-3-[(1EZ)-2-cyano-2-(methylthio)ethenyl]-2,2-dimethylcyclopropane carboxylate] |  |  | 100 | 100 | 100 | 
7 | C#CCN1CC(=O)N(COC(=O)[C@@H]2[C@@H](C=C(C)C)C2(C)C)C1=O [comparative compound (1), 2,5-dioxo-3-(2-propynyl)imidazolidinylmethyl=(1R)-trans-3-(2-methyl-1-propenyl)-2,2-dimethylcyclopropane carboxylate, reference compound] |  |  |  |  | 58 | 
8 | C#CCN1CC(=O)N(COC(=O)[C@@H]2[C@@H](/C=C(\C#N)SC)C2(C)C)C1=O [compound of the present invention (4), 2,5-dioxo-3-(2-propynyl)imidazolidinylmethyl=(1R)-trans-3-[(1E)-2-cyano-2-(methylthio)ethenyl]-2,2-dimethylcyclopropane carboxylate] | 100 | 100 |  |  | 100 | 100
9 | C#CCN1CC(=O)N(COC(=O)[C@@H]2[C@@H](C=C(C#N)SCC)C2(C)C)C1=O (relative stereo) [compound of the present invention (2), 2,5-dioxo-3-(2-propynyl)imidazolidinylmethyl=(1R)-trans-3-[(1EZ)-2-cyano-2-(ethylthio)ethenyl]-2,2-dimethylcyclopropane carboxylate] |  |  |  |  | 100 | 
10 | C#CCN1CC(=O)N(COC(=O)[C@@H]2[C@@H](C=C(C#N)SCCC)C2(C)C)C1=O [compound of the present invention (3), 2,5-dioxo-3-(2-propynyl)imidazolidinylmethyl=(1R)-trans-3-[(1EZ)-2-cyano-2-(propylthio)ethenyl]-2,2-dimethylcyclopropane carboxylate] | 100 | 100 |  |  | 100 | 
11 | C#CCN1CC(=O)N(COC(=O)[C@@H]2[C@@H](C=C(C#N)SC(C)C)C2(C)C)C1=O [compound of the present invention (6), 2,5-dioxo-3-(2-propynyl)imidazolidinylmethyl=(1R)-trans-3-[(1EZ)-2-cyano-2-(isopropylthio)ethenyl]-2,2-dimethylcyclopropane carboxylate] | 100 | 100 |  |  | 92 | 
